Assay results reported in article PMC7309260, “Peptide Probes for Plasmodium falciparum MyoA Tail Interacting Protein (MTIP): Exploring the Druggability of the Malaria Parasite Motor Complex” (ACS Chemical Biology, 2020).
Where two headings read alike, the source gives them in different places. Where a SMILES comes first, the peptide text is derived from it. Where no end group is shown, it is not given here. [ ]: non-standard residue; d: D form. The star is where a group is joined. 5FAM = O=C1OC2(c3ccc(O)cc3Oc3cc(O)ccc32)c2ccc(C(=O)*)cc21; Abu(3-Me-diazirin-3-yl) = CC1(CC[C@H](N)C(=O)O)N=N1

Assays:
[1] = molecular target: T1, PfMTIPΔ60 (Plasmodium falciparum, UniProt Q8I4W8); test: biochemical; format: binding
T1 construct: PfMTIPΔ60 stocks were recombinantly expressed in E. coli BL21; made in house; host or cells: E. coli BL21

[2] = tested on: P. falciparum (3D7 strain); conditions: for uptake of polyarginines compared by chain length: flow cytometry (Figure 2c)
[3] = tested on: P. falciparum; conditions: read-out: EC50, P. falciparum reinvasion / cell viability; serial dilution of peptides in triplicate, egress in presence of peptide, flow cytometry at trophozoite stage, n = 3
[4] = tested on: P. falciparum late schizonts; conditions: 10 μM peptide, 3 h
[5] = molecular target: T1, PfMTIPΔ60; test: biochemical; format: binding; conditions: for n (ITC stoichiometry) / ΔH (ITC) / ΔS (ITC): 303 K, n = 2
[6] = tested on: P. falciparum; test: microbe, parasite or virus in culture; conditions: Plasmodium falciparum, read-out: EC50, P. falciparum reinvasion control curve
[7] = 1% TX-100, densitometry, 2 µL loading
[8] = 1% TX-100, densitometry, 5 µL loading
[9] = 1% TX-100, densitometry, average of 2 µL and 5 µL loadings
[10] = densitometry, average of 2 µL and 5 µL loadings

## CC[C@H](C)[C@H](NC(=O)[C@H](Cc1c[nH]cn1)NC(=O)[C@H](CCCNC(=N)N)NC(=O)[C@H](CCC(N)=O)NC(=O)[C@@H](NC(=O)[C@H](C)NC(=O)[C@H](CC(C)C)NC(=O)[C@H](CCCNC(=N)N)NC(=O)[C@H](CO)NC(=O)[C@@H]1CCCN1C(=O)[C@@H](NC(=O)[C@H](CC(N)=O)NC(=O)[C@H](CC(C)C)NC(=O)CNC(=O)c1ccc2c(c1)C(=O)OC21c2ccc(O)cc2Oc2cc(O)ccc21)[C@@H](C)CC)C(C)C)C(=O)N[C@@H](CCCNC(=N)N)C(=O)N[C@@H](CCCNC(=N)N)C(=O)N[C@@H](CCCNC(=N)N)C(=O)N[C@@H](CCSC)C(=O)N[C@H](C(N)=O)C(C)C [F-ArgMy2] (5FAM-GLNIPSRLAVQRHIRRRMV-NH2)
[1]
  Kd: 4.22 µM

## CC[C@H](C)[C@H](NC(=O)[C@H](Cc1c[nH]cn1)NC(=O)[C@H](C)NC(=O)[C@H](CCC(N)=O)NC(=O)[C@@H](NC(=O)[C@H](CCCNC(=N)N)NC(=O)[C@H](CC(C)C)NC(=O)[C@H](CC(C)C)NC(=O)[C@H](CO)NC(=O)[C@@H]1CCCN1C(=O)[C@@H](NC(=O)[C@H](CC(N)=O)NC(=O)[C@H](CCCNC(=N)N)NC(=O)CNC(=O)c1ccc2c(c1)C(=O)OC21c2ccc(O)cc2Oc2cc(O)ccc21)[C@@H](C)CC)C(C)C)C(=O)N[C@@H](CCCNC(=N)N)C(=O)N[C@@H](CCCNC(=N)N)C(=O)N[C@@H](CCCNC(=N)N)C(=O)N[C@@H](CCSC)C(=O)N[C@H](C(N)=O)C(C)C [F-ArgMy1] (5FAM-GRNIPSLLRVQAHIRRRMV-NH2)
[2]; Pf3D7 early schizonts, flow cytometry (Figure 2d)
  fold improvement in uptake compared to F-My1: 2 fold
[2]; midstage schizonts, flow cytometry
  permeability, share of all parasitized cells: up to 50%
[3]
  EC50: ~160 µM
[4]; [7]
  In vivo Conc, TX I (insoluble): 0.06 µM
  In vivo Conc, TX S (soluble): 2.94 µM
[4]; [8]
  In vivo Conc, TX I (insoluble): 0.39 µM
  In vivo Conc, TX S (soluble): 7.17 µM
[4]; [9]
  In vivo Conc, TX I (insoluble), Av.: 0.22 µM
  In vivo Conc, TX S (soluble), Av.: 5.06 µM
[4]; densitometry, 2 µL loading
  In vivo Conc, SLO S (soluble): 2.03 µM
[4]; densitometry, 5 µL loading
  In vivo Conc, SLO I (insoluble): 0.93 µM
  In vivo Conc, SLO S (soluble): 3.01 µM
[4]; [10]
  In vivo Conc, SLO I (insoluble), Av.: 0.51 µM
  In vivo Conc, SLO S (soluble), Av.: 2.52 µM
[4]; late schizonts, densitometry of in-gel fluorescence, 2 µL loading
  In vivo Conc, SLO I (insoluble): 0.10 µM
[1]
  Kd: 0.0039 µM

## KNIPSLLRVQAHIRKKMV-NH2 (C-terminus assumed) [My1]
[5]
  n (ITC stoichiometry): 1.06 ± 0.01
  ΔH (ITC): -15.9 ± 0.12 kcal/mol
  ΔS (ITC): -85.9 J/K.mol

## FAM GRRRRRRRR -NH2 [F-Arg8]
[2]; Pf3D7 early schizonts ca. 35 h PI, flow cytometry, unpaired t test (Figure 2b)
  uptake compared with F-My1: significantly greater permeability over F-My1
[2]; Pf3D7 early schizonts
  uptake of polyarginines compared by chain length: significantly greater than F-Arg6

## C[C@H]1[C@@H](O)O[C@@H]2O[C@@]3(C)CC[C@H]4[C@H](C)CC[C@@H]1[C@@]24OO3 [dihydroartemisin, Dihydroartemisinin]
[6]
  EC50: 0.01 µM

## CC[C@H](C)[C@H](NC(=O)[C@H](Cc1c[nH]cn1)NC(=O)[C@H](C)NC(=O)[C@H](CCC(N)=O)NC(=O)[C@@H](NC(=O)[C@H](CCCNC(=N)N)NC(=O)[C@H](CC(C)C)NC(=O)[C@H](CC(C)C)NC(=O)[C@H](CO)NC(=O)[C@@H]1CCCN1C(=O)[C@@H](NC(=O)[C@H](CC(N)=O)NC(=O)[C@H](CCCCN)NC(=O)CNC(=O)c1ccc2c(c1)C(=O)OC21c2ccc(O)cc2Oc2cc(O)ccc21)[C@@H](C)CC)C(C)C)C(=O)N[C@@H](CCCNC(=N)N)C(=O)N[C@@H](CCCCN)C(=O)N[C@@H](CCCCN)C(=O)N[C@@H](CCSC)C(=O)N[C@H](C(N)=O)C(C)C [F-My1] (5FAM-GKNIPSLLRVQAHIRKKMV-NH2)
[3]
  EC50: ~160 µM
[5]
  Kd: 0.0571 ± 0.013 µM
  n (ITC stoichiometry): 0.91 ± 0.01
  ΔH (ITC): -17.6 ± 0.22 kcal/mol
  ΔS (ITC): -104 J/K.mol

## CC[C@H](C)[C@H](NC(=O)[C@H](Cc1c[nH]cn1)NC(=O)[C@H](C)NC(=O)[C@H](CCC(N)=O)NC(=O)[C@@H](NC(=O)[C@H](CCCNC(=N)N)NC(=O)[C@H](CC(C)C)NC(=O)[C@H](CC(C)C)NC(=O)[C@H](CO)NC(=O)[C@@H]1CCCN1C(=O)[C@@H](NC(=O)[C@H](CC(N)=O)NC(=O)[C@H](CCCCN)NC(=O)CNC(=O)[C@H](CCC1(C)N=N1)NC(=O)c1ccc2c(c1)C(=O)OC21c2ccc(O)cc2Oc2cc(O)ccc21)[C@@H](C)CC)C(C)C)C(=O)N[C@@H](CCCNC(=N)N)C(=O)N[C@@H](CCCCN)C(=O)N[C@@H](CCCCN)C(=O)N[C@@H](CCSC)C(=O)N[C@H](C(N)=O)C(C)C [F/D-My1] (5FAM-[Abu(3-Me-diazirin-3-yl)]GKNIPSLLRVQAHIRKKMV-NH2)
[1]
  Kd: 0.0034 µM

## FAM GRRRRRR -NH2 [F-Arg6]
[2]; Pf3D7 early schizonts
  uptake of polyarginines compared by chain length: significant improvement over F-Arg4

## FAM GRRRRRRR -NH2 [F-Arg7]
[2]; Pf3D7 early schizonts
  uptake of polyarginines compared by chain length: significantly greater than F-Arg6
